Data as given in patent US10058525B2, “Application of chlorogenic acid in preparing medicines for treating lupus erythematosus” (SICHUAN JIUZHANG BIOLOGICAL SCIENCE AND TECHNOLOGY CO., LTD., priority 2015, dated 2018).

Tested on: lupus erythematosus model mice (kidney, liver)
Assay: Triple staining (silver staining) of kidney and liver sections under light microscope, lupus model mice
Type: in vivo, BALB/c mice
Experimental: The back of mice was shaved and acutely exposed to Ultraviolet of 2 h/d*3 d, with a distance of 30 cm. After exposure to UV, 2.5 mg/kg of LPS was administrated once by ip, and after 24 h, the model was successfully established; the mice in the normal control group received normal saline via ip. 24 h after injection of LPS (ip), medicines were given to the model mice by intragastric administration. Chlorogenic acid test groups received high, middle, and low doses of medicines, by intragastric administration at a respective dosage of 10 mg/kg*d, 20 mg/kg*d, and 40 mg/kg*d. The positive control group A received 2 mg/kg*d of artesunate by stomach perfusion, while the positive control group B received 1 mg/kg*d of prednisone by stomach perfusion. Mice in the model and normal control group all received 0.4 ml/mouse normal saline by gavage. After 15 days of administration, animals in each group were taken blood by separating eyeballs on days 14, 21, 28, and after cultured in water bath at 37° C. for 1 h, the blood sample was centrifugated at 2000 r/min for 5 min, to draw serum for use. On day 21, after blood collection, animals were sacrificed by dislocation, followed by collection of liver and kidney, and they were placed in fixative solutions of electron microscope and light microscrope, respectively.
[…] The thickness of slice is 3 μm, and at beginning of staining, wax was routinely deprived to water. After oxidation with 0.5% periodic acid, the slice was macerated in hexamine silver fluid for about 2 h (constant temperature 58° C.), washed with distilled water, dyed with hematoxylin for 1 min. After washing with water, the slice was dyed by dropping the ponceau staining solution for 5 min, differentiated with 70% ethanol, dehydrated with gradient ethanol, cleared with xylene, and sealed with neutral gum.

[1] = chlorogenic acid group administrated for 28 days

With O=C(/C=C/c1ccc(O)c(O)c1)O[C@@H]1C[C@](O)(C(=O)O)C[C@@H](O)[C@H]1O [Chlorogenic acid, 3-O-caffeoylquinic acid] the “staining of hepatic blood vessel basilar membrane” value [1] was “somewhat recovered”, the “thickening degree of renal glomerular and tubular basilar membrane” value [1] was “reduced compared with normal mice” and the “basilar membrane of renal glomerulus and tubule, pathological section” value (chlorogenic acid, 21 days) was “increased thickness compared with normal mice”. The “pathological section of kidney: conditions versus model group” value (chlorogenic acid, 21 days, especially high dose group) was “better than the model group” and the “thickening of renal glomerulus and tubular basement membrane (FIG. 8)” value (high dose of chlorogenic acid, 28 days, ×50) was “thickening degree of renal glomerulus and tubular basement membrane reduces”.
